Read-outs that look alike come from different tables or passages of the source.
Experiments:
[1] = Stability of flavonoids and biotransformation products in mouse plasma under different handling conditions; type: in vitro ADME, mice
Experimental: (§1) Plasma dried pulverized samples were extracted with methanol (HPLC grade, Merck). The extracts were filtered with Teflon membrane dimensions 0.45 μm by 13 mm (Millex®-LCR); 20 μL of each filtered sample was injected into the HPLC equipment. The measurements were performed in a (Waters corporation, Milford, CT, USA) 2695 HPLC with a diode array detector (Waters 2996) and processed with the Empower Pro 1.0 software. A Chromolith Performance® RP-18e 100 × 4.6 mm (Merck KGaA, Darmstadt, Germany) was used. The mobile phase consisted of a mixture of acetonitrile and water with the proportion 55:45 and a flow rate of 1 mL/min. The concentrations of the flavonoids and the biotransformation products were obtained by comparison with a pre-built calibration curve at λ = 220 nm.
[…] The investigation enclosed here expected manipulation conditions during all the sample storage and process periods, which included the stability data from the freeze/thaw, bench-top, autosampler, and long–term stability tests.
For all stability studies, fresh QC samples were evaluated by using a freshly prepared standard curve for the measurements. The concentrations obtained from all the stability studies were compared with the fresh QC samples, and the percentage concentration deviation was calculated. The analytes were considered stable in the mouse plasma when the concentration difference between the freshly prepared samples and the stability samples was less than 15%.

[2] = Plasma concentration after a single oral dose of the anxiolytic fraction (HPLC); type: in vivo, ICR mice; conditions: oral 200 mg/kg anxiolytic fraction, immediately after administration and over 24 h
Experimental: Eleven groups of ten animals each were randomly formed. All animals were orally administered with 200 mg/kg of the active fraction. Animals were anaesthetized with ether, and blood samples were obtained from the retroorbital sinus with a heparinized capillary, each group was examined at different times (0, 5, 10, 15, 30, 60, 120, 240, 480, 720, and 1440 min) after the active fraction was administered. […] Then the plasma samples were frozen and lyophilized. The dry plasma was subsequently used to extract and measure the concentration of the flavonoids and biotransformation products.
as §1
To evaluate the suitability of the assay for the pharmacokinetic studies, 200 mg/kg of the active fraction was orally administered to the animals. Ten animals were used in each group at different times (0, 5, 10, 15, 30, 60, 120, 240, 480, 720, and 1440 min). Pharmacokinetic calculations were performed using the observed data. All data was subsequently processed using the PKSolver add-in program for Microsoft Excel written in Visual Basic for Applications. All values obtained were expressed in mean ± standard deviation.

[3] = design: method as in PMID 11151743; conditions: glucoronides and sulphates of quercetin found in plasma; cited from earlier work
[4] = storage stability, high nominal conc.
[5] = storage stability, high nominal conc. (7.00; 44.37; 4.50; 31.25 µg/mL), n = 6
[6] = storage stability, low nominal conc.
[7] = storage stability, low nominal conc. (1.75; 11.02; 1.12; 1.95 µg/mL), n = 6
[8] = storage stability, medium nominal conc.

C[C@@H]1O[C@@H](OC[C@H]2O[C@@H](Oc3c(-c4ccc(O)c(O)c4)oc4cc(O)cc(O)c4c3=O)[C@H](O)[C@@H](O)[C@@H]2O)[C@H](O)[C@H](O)[C@H]1O [Rutin, rutin]
Observed Conc. 0 h [1]: 3.39 ± 0.16 µg/mL | Observed Conc. 8 h [1]: 3.67 ± 0.30 µg/mL | Observed Conc. 24 h [1]: 3.38 ± 0.27 µg/mL | Observed Conc. Autosampler (4 °C; 8 h) [1]: 3.44 ± 0.15 µg/mL | Observed Conc. Long-term (−70 °C; 1 month) [1]: 3.51 ± 0.28 µg/mL | Accuracy Bias 0 h ([1]; room temperature (25 °C), 0 h, high nominal conc.): −1.99% | Observed Conc. 0 h ([1]; room temperature (25 °C), 0 h, high nominal conc. (rutin 7.00; quercetin glucoside, quercitrin, tiliroside 44.37; kaempferol 4.50; m-HPAA, p-HPAA, DOPAC 31.25 µg/mL), n = 6): 7.27 ± 0.41 µg/mL | Accuracy Bias 0 h ([1]; room temperature (25 °C), 0 h, low nominal conc.): 5.76% | Observed Conc. 0 h ([1]; room temperature (25 °C), 0 h, low nominal conc. (rutin 1.75; quercetin glucoside, quercitrin, tiliroside 11.02; kaempferol 1.12; m-HPAA, p-HPAA, DOPAC 1.95 µg/mL), n = 6): 1.74 ± 0.11 µg/mL | Accuracy Bias 0 h ([1]; room temperature (25 °C), 0 h, medium nominal conc.): 3.17% | Accuracy Bias 8 h ([1]; room temperature (25 °C), 8 h, high nominal conc.): −2.45% | Observed Conc. 8 h ([1]; room temperature (25 °C), 8 h, high nominal conc. (7.00; 44.37; 4.50; 31.25 µg/mL), n = 6): 7.17 ± 0.21 µg/mL | Accuracy Bias 8 h ([1]; room temperature (25 °C), 8 h, low nominal conc.): 5.46% | Observed Conc. 8 h ([1]; room temperature (25 °C), 8 h, low nominal conc. (1.75; 11.02; 1.12; 1.95 µg/mL), n = 6): 1.65 ± 0.10 µg/mL | Accuracy Bias 8 h ([1]; room temperature (25 °C), 8 h, medium nominal conc.): −4.97% | Accuracy Bias 24 h ([1]; room temperature (25 °C), 24 h, high nominal conc.): −3.93% | Observed Conc. 24 h ([1]; room temperature (25 °C), 24 h, high nominal conc. (7.00; 44.37; 4.50; 31.25 µg/mL), n = 6): 7.13 ± 0.24 µg/mL | Accuracy Bias 24 h ([1]; room temperature (25 °C), 24 h, low nominal conc.): 0.33% | Observed Conc. 24 h ([1]; room temperature (25 °C), 24 h, low nominal conc. (1.75; 11.02; 1.12; 1.95 µg/mL), n = 6): 1.64 ± 0.10 µg/mL | Accuracy Bias 24 h ([1]; room temperature (25 °C), 24 h, medium nominal conc.): 2.93% | Accuracy Bias Autosampler (4 °C; 8 h) [1, 4]: −1.17% | Accuracy Bias Long-term (−70°C; 1 month) [1, 4]: −1.56% | Observed Conc. Autosampler (4 °C; 8 h) [1, 5]: 7.08 ± 0.34 µg/mL | Observed Conc. Long-term (−70 °C; 1 month) [1, 5]: 7.10 ± 0.38 µg/mL | Accuracy Bias Autosampler (4 °C; 8 h) [1, 6]: −6.41% | Accuracy Bias Long-term (−70°C; 1 month) [1, 6]: 2.92% | Observed Conc. Autosampler (4 °C; 8 h) [1, 7]: 1.86 ± 0.19 µg/mL | Observed Conc. Long-term (−70 °C; 1 month) [1, 7]: 1.69 ± 0.12 µg/mL | Accuracy Bias Autosampler (4 °C; 8 h) [1, 8]: 1.58% | Accuracy Bias Long-term (−70°C; 1 month) [1, 8]: −0.45% | flavonoids found in the plasma after oral administration [2]: not found | absorption into the vascular space after oral administration [3]: not absorbed

Source: publication PMC6152131, “Pharmacokinetic Study of Biotransformation Products from an Anxiolytic Fraction of Tilia americana” (Molecules : A Journal of Synthetic Chemistry and Natural …, 2017)
